Source: patent publication US20080146593A1, “Substituted 5-Phenyl Pyrimidines I In Therapy” (Basf Aktiengesellschaft, priority 2005, published 2008)

Test system: HeLa cells
Assay: Measurement of the cell cycle inhibition in HeLa cells
Assay type: cell-based
Details: HeLa B cells, 20 h incubation with compound; FACS ratio G0/G1 to G2/M vs DMSO; concentration at which 50% of cells are in cell cycle arrest
Method: Measurement of the Cell Cycle Inhibition in HeLa Cells—Test Procedure:
HeLa B cells are grown in DMEM (Life Technologies Cat No 21969-035) supplemented with 10% Fetal Calf Serum (FCS, Life Technologies Cat No 10270-106) in 180 cm^2 Flasks at 37° C., 92% humidity and 7% CO2.
Cells are seeded at 5×10^4 cells per well in a 24-well plate. Twenty hours later the compounds are added such that the final concentration is 1×10^−6, 3.3×10^−7, 1.1×10^−7, 3.7×10^−8, 1.2×10^−8 and 1×10^−9 M in a final volume of 500 μl. DMSO alone is added to 6 wells as a control. Cells are incubated with the compounds as above for 20 h. Then cells are observed under the microscope to check for cell death, and the 24-well plate is then centrifuged at 1200 rpm for 5 min at 20° C., acceleration position 7 and break position 5 (Eppendorf centrifuge 5804R).
The supernatant is removed and the cells lysed with 0.5 ml RNase Buffer (10 mM NaCitrate, 0.1% Nonidet NP40, 50 μg/ml RNase, 10 μg/ml Propidium iodide) per well. The plates are then incubated for at least 30 min in the dark at RT and the samples then transferred to FACS tubes. Samples are measured in a FACS machine (Beckton Dickinson) at the following settings:
Instrument Settings of the FACS Calibur:
The ratio of cells in G0/G1-phase to G2/M phase is calculated and compared to the value for the controls (DMSO) only. Results are given in table 2 as the IC50 value calculated from the concentration curve plotted against the cell cycle ratio and indicate the compound concentration at which 50% of cells are in cell cycle arrest after treatment with the compound.

Row | IC50 [µM] | Structure (SMILES)
1 | 0.025 | CCC(C)Nc1nc(-n2cccn2)nc(Cl)c1-c1c(C)cccc1F (centres unmarked) [Example 109]
2 | 0.025 | CCC(C)Nc1nc(-n2cc(I)cn2)nc(Cl)c1-c1c(C)cccc1F (centres unmarked) [Example 120]
3 | 0.018 | C[C@H](Nc1nc(C(N)=NO)nc(Cl)c1-c1c(F)cccc1F)C(F)(F)F [Example 175]
4 | 0.026 | Cc1cnn(-c2nc(Cl)c(-c3c(F)cc(F)cc3F)c(N3CCCCC3)n2)c1 [Example 55]
5 | 0.013 | CC1CCCN1c1nc(-n2cccn2)nc(Cl)c1-c1c(F)cc(F)cc1F (centres unmarked) [Example 74]
6 | 0.0046 | CC(C)c1ccn(-c2nc(Cl)c(-c3c(F)cc(F)cc3F)c(N[C@@H](C)C(F)(F)F)n2)n1 [Example 5]
7 | 0.022 | Cc1cnn(-c2nc(Cl)c(-c3c(F)cc(F)cc3F)c(N[C@@H](C)C(F)(F)F)n2)c1Cl [Example 155]
8 | 0.048 | CCNc1nc(-n2cccn2)nc(Cl)c1-c1c(F)cc(F)cc1F [Example 164]
9 | 0.032 | CCC(C)Nc1nc(C(N)=NO)nc(Cl)c1-c1c(F)cc(F)cc1F (centres unmarked) [Example 146]
10 | 0.031 | CCCNc1nc(-n2nc(C)cc2C(=O)OCC)nc(Cl)c1-c1ccc(C)cc1F [Example 160]
11 | 0.027 | Cc1nc(-n2ccnn2)nc(N2CCC(C)CC2)c1-c1c(F)cc(F)cc1F [Example 90]
12 | 0.016 | CC(C)Nc1nc(-n2cc(Br)cn2)nc(Cl)c1-c1c(F)cccc1Cl [Example 19]
13 | 0.02 | C[C@H](Nc1nc(-n2cccn2)nc(F)c1-c1c(F)cc(F)cc1F)C(F)(F)F [Example 167]
14 | 0.02 | CCC(C)Nc1nc(-n2ccnn2)nc(Cl)c1-c1c(F)cc(F)cc1F (centres unmarked) [Example 91]
15 | 0.023 | C[C@H](Nc1nc(C(N)=O)nc(Cl)c1-c1c(F)cc(F)cc1F)C(F)(F)F [Example 159]
16 | 0.019 | CC1CCCN(c2nc(-n3cccn3)nc(Cl)c2-c2c(F)cc(F)cc2F)C1 (centres unmarked) [Example 43]
17 | 0.039 | Cc1ccn(-c2nc(Cl)c(-c3c(F)cc(F)cc3F)c(NC(C)C)n2)n1 [Example 18]
18 | 0.018 | CC(=NO)c1nc(Cl)c(-c2c(F)cc(F)cc2F)c(N[C@@H](C)C(F)(F)F)n1 [Example 209]
19 | 0.011 | CC1CCN(c2nc(-c3ccccn3)nc(Cl)c2-c2c(F)cc(O)cc2F)CC1 [Example 73]
20 | 0.025 | CCC(C)Nc1nc(-c2csc(C)n2)nc(Cl)c1-c1c(F)cc(F)cc1F (centres unmarked) [Example 71]
21 | 0.042 | CC1CCN(c2nc(-n3cncn3)nc(Cl)c2-c2c(F)cccc2F)CC1 [Example 116]
22 | 0.006 | COc1cc(F)c(-c2c(Cl)nc(C(N)=NO)nc2N[C@@H](C)C(F)(F)F)c(F)c1 [Example 181]
23 | 0.015 | C[C@H](Nc1nc(-n2cccn2)nc(Br)c1-c1c(F)cc(F)cc1F)C(F)(F)F [Example 207]
24 | 0.049 | C=CCN(C)c1nc(-n2cc(Br)cn2)nc(Cl)c1-c1c(F)cc(F)cc1F [Example 123]
25 | 0.014 | COc1ccc(-c2c(Cl)nc(C(N)=NO)nc2N[C@@H](C)C(F)(F)F)c(Cl)c1 [Example 215]

Row | IC50 [µM] | Structure (SMILES)
26 | 0.044 | CCOC(=O)c1cc(C)nn1-c1nc(Cl)c(-c2c(F)cc(F)cc2F)c(N[C@H](C)C(C)C)n1 [Example 88]
27 | 0.018 | CON=C(N)c1nc(Cl)c(-c2c(F)cccc2Cl)c(N[C@@H](C)C(F)(F)F)n1 [Example 214]
28 | 0.021 | Cc1nc(C)n(-c2nc(Cl)c(-c3c(F)cccc3Cl)c(N3CCC(C)CC3)n2)n1 [Example 85]
29 | 0.04 | Cc1ccc(-c2c(Cl)nc(-n3cncn3)nc2N[C@@H](C)C(C)C)c(F)c1 [Example 100]
30 | 0.02 | C[C@H](Nc1nc(C(N)=NO)nc(Cl)c1-c1c(F)cccc1Cl)C(F)(F)F [Example 176]
31 | 0.027 | Cc1c[nH]n(-c2nc(Cl)c(-c3c(F)cc(F)cc3F)c(N[C@@H](C)C(F)(F)F)n2)c1=O [Example 153]
32 | 0.051 | CON=C(N)c1nc(Cl)c(-c2c(F)cccc2F)c(N[C@@H](C)C(F)(F)F)n1 [Example 213]
33 | 0.046 | Cc1nc(-c2nc(Cl)c(-c3c(F)cc(F)cc3F)c(NC3CCCC3)n2)cs1 [Example 72]
34 | 0.049 | CCC(C)Nc1nc(-n2cncn2)nc(Cl)c1-c1c(F)cccc1F (centres unmarked) [Example 113]
35 | 0.043 | Cc1ccnc(-c2nc(Cl)c(-c3c(F)cc(F)cc3F)c(NC(C)C)n2)c1 [Example 15]
36 | 0.045 | CC(C)Nc1nc(-n2cc(Br)cn2)nc(Cl)c1-c1c(F)cc(F)cc1F [Example 17]
37 | 0.033 | CC(C)Nc1nc(-n2cccn2)nc(Cl)c1-c1c(F)cc(F)cc1F [Example 101]
38 | 0.03 | COc1cc(F)c(-c2c(Cl)nc(C(N)=O)nc2N2CCC(C)CC2)c(F)c1 [Example 188]
39 | 0.03 | CC(C)[C@H](C)Nc1nc(C(N)=NO)nc(Cl)c1-c1cc(F)ccc1Cl [Example 201]
40 | 0.017 | C[C@H](Nc1nc(-n2ccc(C(F)(F)F)n2)nc(Cl)c1-c1c(F)cc(F)cc1F)C(F)(F)F [Example 6]
41 | 0.023 | CC(C)[C@H](C)Nc1nc(-n2cccn2)nc(Cl)c1-c1c(F)cc(F)cc1F [Example 138]
42 | 0.041 | CCC(C)Nc1nc(-n2ccnn2)nc(Cl)c1-c1c(F)cccc1F (centres unmarked) [Example 114]
43 | 0.038 | Fc1cc(F)c(-c2c(Cl)nc(-n3cccn3)nc2N2CC=CCC2)c(F)c1 [Example 41]
44 | 0.0058 | CC(Nc1nc(-n2ccc(N)n2)nc(Cl)c1-c1c(F)cc(F)cc1F)C(F)(F)F (centres unmarked) [Example 57]
45 | 0.05 | C=CCN(CC=C)c1nc(-n2cc(Br)cn2)nc(Cl)c1-c1ccc(F)cc1Cl [Example 134]
46 | 0.039 | CCC(C)Nc1nc(-n2ccnn2)nc(Cl)c1-c1c(F)cccc1Cl (centres unmarked) [Example 107]
47 | 0.014 | CC1CCCN1c1nc(-n2cncn2)nc(Cl)c1-c1c(F)cc(F)cc1F (centres unmarked) [Example 75]
48 | 0.024 | COc1cc(F)c(-c2c(Cl)nc(-n3cnc([N+](=O)[O-])n3)nc2N2CCC(C)CC2)c(F)c1 [Example 86]
49 | 0.041 | Cc1ccc(-c2c(Cl)nc(-n3ccc(N)n3)nc2NCC(F)(F)F)c(F)c1 [Example 149]
50 | 0.018 | C=CCN(CC=C)c1nc(-n2ccc(N)n2)nc(Cl)c1-c1ccc(F)cc1Cl [Example 135]

Row | IC50 [µM] | Structure (SMILES)
51 | 0.038 | CC1CCCCN1c1nc(-n2cccn2)nc(Cl)c1-c1c(F)cccc1F (centres unmarked) [Example 125]
52 | 0.021 | COc1cc(F)c(-c2c(Cl)nc(-c3ccccn3)nc2NC2CCCC2)c(F)c1 [Example 64]
53 | 0.033 | CON=C(N)c1nc(Cl)c(-c2ccc(OC)cc2Cl)c(N[C@@H](C)C(C)C)n1 [Example 186]
54 | 0.046 | CC1CCCN1c1nc(-n2cncn2)nc(Cl)c1-c1c(F)cccc1Cl (centres unmarked) [Example 98]
55 | 0.017 | CC1CCN(c2nc(-n3ccnn3)nc(Cl)c2-c2c(F)cc(F)cc2F)CC1 [Example 29]
56 | 0.046 | CC1CCCCN1c1nc(-n2cncn2)nc(Cl)c1-c1ccc(F)cc1F (centres unmarked) [Example 141]
57 | 0.016 | Cc1ccc(-c2c(Cl)nc(-n3cccn3)nc2NCC(F)(F)F)c(F)c1 [Example 108]
58 | 0.025 | CC1CCN(c2nc(-n3cnc(N)n3)nc(Cl)c2-c2c(F)cc(F)cc2F)CC1 [Example 94]
59 | 0.0015 | C[C@@H](Nc1nc(C(N)=NO)nc(Cl)c1-c1c(F)cc(F)cc1F)C(F)(F)F [Example 137]
60 | 0.025 | C[C@H](Nc1nc(-n2cc(I)cn2)nc(Cl)c1-c1c(F)cc(F)cc1F)C(F)(F)F [Example 34]
61 | 0.015 | CON=C(N)c1nc(Cl)c(-c2c(F)cc(OC)cc2F)c(N[C@@H](C)C(C)C)n1 [Example 198]
62 | 0.029 | CC(C)[C@H](C)Nc1nc(-c2nccs2)nc(Cl)c1-c1c(F)cccc1Cl [Example 136]
63 | 0.025 | Cc1cc(C)n(-c2nc(Cl)c(-c3c(F)cc(F)cc3F)c(NC(C)C)n2)n1 [Example 21]
64 | 0.013 | C[C@H](Nc1nc(-n2cncn2)nc(Cl)c1-c1c(F)cc(F)cc1F)C(F)(F)F [Example 8]
65 | 0.021 | COc1cc(F)c(-c2c(Cl)nc(-n3ccnn3)nc2N2CCC(C)CC2)c(F)c1 [Example 69]
66 | 0.026 | CC1CCN(c2nc(-n3cncn3)nc(Cl)c2-c2c(F)cccc2Cl)CC1 [Example 47]
67 | 0.048 | CC(C)Nc1nc(-c2ccccn2)nc(Cl)c1-c1c(F)cc(F)cc1F [Example 2]
68 | 0.021 | C[C@H](Nc1nc(C(N)=NO)nc(Cl)c1-c1ccc(F)cc1Cl)C(F)(F)F [Example 172]
69 | 0.037 | CC1CCCCN1c1nc(-n2ccc(N)n2)nc(Cl)c1-c1c(F)cccc1F (centres unmarked) [Example 127]
70 | 0.023 | CC(C)[C@H](C)Nc1nc(C(N)=NO)nc(Cl)c1-c1c(F)cc(F)cc1F [Example 145]
71 | 0.0069 | C[C@H](Nc1nc(-c2ccccn2)nc(Cl)c1-c1c(F)cc(F)cc1F)C(F)(F)F [Example 12]
72 | 0.037 | CC1CCN(c2nc(-n3cccn3)nc(Cl)c2-c2c(F)cccc2Cl)CC1 [Example 66]
73 | 0.017 | CC1CCN(c2nc(-n3cncn3)nc(Cl)c2-c2c(F)cc(F)cc2F)CC1 [Example 28]
74 | 0.026 | COc1c(C)cnn1-c1nc(Cl)c(-c2c(F)cc(F)cc2F)c(N[C@@H](C)C(F)(F)F)n1 [Example 154]
